Patent publication US20050202463A1, “Modulators of dimethylarginine dimethylaminohydrolase and methods of use thereof” (priority 2003, published 2005)

Key:
mice = assay: plasma glucose clearance after i.p. insulin (insulin sensitivity); assay type: in vivo; conditions: wild-type female mice, ADMA 75 mg/kg i.p. after 4 h fasting, insulin injected 2 h later, compared to PBS-treated wild-type mice
Description: Experiments were performed to assess insulin sensitivity by measuring plasma glucose clearance rate in these DDAH transgenic mice. After 4 hours of fasting, wildtype female mice were injected intraperitoneally with either ADMA (75 mg/kg), which induces insulin resistance, or phosphate buffered saline (PBS); the same dosage was given to the transgenic mice (n=3 in each group). After two hours, insulin was injected; venous blood glucose was assayed by a glucometer every 5 minutes for an hour. The half-life of glucose disappearance from plasma was calculated using a first-order decay model; plasma ADMA was measured by HPLC.

ADMA levels = conditions: reported in the literature (Stuhlinger et al. 2002; Wheatcroft et al. 2003); cited from earlier work

Compound	plasma glucose response to insulin (mice)	effect on ADMA levels (ADMA levels)
CN(C)C(N)=NCCC[C@H](N)C(=O)O [ADMA, asymmetric dimethylarginine]	delayed and attenuated drop in plasma glucose in response to insulin	
CN(C)C(=N)N=C(N)N [metformin]		decrease circulating ADMA levels
